Results as given in ChEMBL document CHEMBL1201862, “PubChem BioAssay data set” (2004).
The source made the active and inactive calls. The rule behind the calls is not given here.

Assays:
[1] = molecular target: T1, High affinity choline transporter 1 (Homo sapiens, UniProt Q9GZV3); assay: CHT inhibitors, dose response, cell-based, 10-point CRC, membrane potential dye (AID 588401); format: functional;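 note: membrane potential dye fluorescence of choline-evoked depolarization via CHT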
T1 sequence (Q9GZV3 whole entry): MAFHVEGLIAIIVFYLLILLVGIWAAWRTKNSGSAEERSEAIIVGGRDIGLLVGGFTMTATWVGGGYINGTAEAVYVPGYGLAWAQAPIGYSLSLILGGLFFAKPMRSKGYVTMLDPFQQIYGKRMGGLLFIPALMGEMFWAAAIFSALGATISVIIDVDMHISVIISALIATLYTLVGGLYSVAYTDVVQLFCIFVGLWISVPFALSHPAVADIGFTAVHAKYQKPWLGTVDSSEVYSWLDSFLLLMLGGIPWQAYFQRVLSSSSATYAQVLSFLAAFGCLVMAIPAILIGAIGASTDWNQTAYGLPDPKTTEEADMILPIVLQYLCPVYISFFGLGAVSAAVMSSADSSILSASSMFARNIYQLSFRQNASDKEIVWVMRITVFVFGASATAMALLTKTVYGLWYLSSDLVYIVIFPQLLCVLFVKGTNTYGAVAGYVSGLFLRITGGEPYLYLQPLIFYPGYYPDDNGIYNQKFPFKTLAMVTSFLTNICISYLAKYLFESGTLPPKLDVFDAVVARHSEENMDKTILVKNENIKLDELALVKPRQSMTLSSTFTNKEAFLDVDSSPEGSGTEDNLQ

[2] = molecular target: T1, High affinity choline transporter 1; assay: CHT inhibitors, dose response, cell-based, 5-point CRC, membrane potential dye (AID 504840); format: functional

CC(/C=C1\SC(=S)N(CC(=O)O)C1=O)=C\c1ccccc1
IC50 [1]: 6.48 µM (active)
IC50 [2]: 9.45 µM (active)
